Results taken from patent US20040147561A1, “Pyrid-2-one derivatives and methods of use” (priority 2002, published 2004).

Legend:
[1] = Cell proliferation assay (BrdU incorporation); type: cell-based; details: Homo sapiens, 48 h incubation, cell line not given, read-out: inhibited proliferation IC50
Method: Cell proliferation was measured using a colorimetric immunoassay (B/M Roche #164 7229), based on the measurement of pyrimidine analog BrdU incorporation during DNA synthesis in proliferating cells. Cells, e.g., human PC-3 prostate carconima cells, huFSF normal human foreskin fibroblast cells, HCT 116 human colon carcinoma cells or HT 29 human colon carcinoma cells, were cultured in a 96-well plate for 24 h, until a cell count of 3×10^3 to 6×10^3 cells per well in duplicate wells were achieved, in a well volume of 200 μL. The media was changed and 1 μL of 200× control inhibitors or compounds was added to each well. Cells are incubated for 48 h at 37° C. The cells were labeled with BrdU for 4 h at 37° C. The labeling medium was removed and in one step, the cells were fixed and the DNA was denatured (30 min at RT). Anti-BrdU-POD antibody was added to bind to the BrdU incorporated in newly synthesized cellular DNA (60-90 min at RT). The cells were washed 3× with washing buffer, substrate (100 μL) was added and the cells were incubated for 10 min at RT. The substrate reaction was stopped by adding 25 μL of 1M H2SO4. The amount of BrdU incorporated was quantified by measuring the absorbance at 450 nm using ELISA reader. IC50's were calculated using GraFit (Sigma).

melting point | SMILES | IC50 [1]
300 °C (dec.) | CCOC(=O)c1cc(-c2csc(CS(=O)(=O)c3cccs3)n2)c(=O)[nH]c1C [Example 24, Ethyl 2-methyl-6-oxo-5-{2-[(2-thienylsulfonyl)methyl](1,3-thiazol-4-yl)}-1,6-dihydro-3-pyridinecarboxylate] | < 1 µM
280 °C (dec.) | CCOC(=O)c1cc(-c2csc(-c3ccnc(NCc4cccnc4)c3)n2)c(=O)[nH]c1C [Example 47, Ethyl 2-methyl-6-oxo-5-(2-(2-((3-pyridinylmethyl)amino)-4-pyridinyl)-1,3-thiazol-4-yl)-1,6-dihydro-3-pyridin carboxylate] | < 1 µM

Continued, compound first:

SMILES | melting point | IC50 [1]
CCOC(=O)c1cc(-c2csc(CS(=O)(=O)c3cccs3)n2)c(=O)[nH]c1CC [Example 2, Ethyl 2-ethyl-6-oxo-5-{2-[(thienylsulfonyl)methyl](1,3-thiazol-4-yl)}-1,6-dihydro-3-pyridinecarboxylate] | – | < 1 µM
CCOC(=O)c1cc(-c2csc(CS(=O)(=O)c3ccccc3)n2)c(=O)[nH]c1CC [Example 3, Ethyl 2-ethyl-6-oxo-5-{2-[(phenylsulfonyl)methyl](1,3-thiazol-4-yl)}-1,6-dihydro-3-pyridinecarboxylate] | – | < 1 µM
CCOC(=O)c1cc(-c2csc(CS(=O)(=O)c3ccccc3)n2)c(=O)[nH]c1C(C)C [Example 12, Ethyl 2-isopropyl-6-oxo-5-{2-[(phenylsulfonyl)methyl](1,3-thiazol-4-yl)}-1,6-dihydro-3-pyridinecarboxylate] | – | < 1 µM
CCOC(=O)c1cc(-c2csc(-c3ccnc(NCCNC(C)C)c3)n2)c(=O)[nH]c1C [Example 50, Ethyl 2-methyl-5-(2-(2-((2-((1-methylethyl)amino)ethyl)amino)-4-pyridinyl)-1,3-thiazol-4-yl)-6-oxo-1,6-dihydro-3-pyridinecarboxylate] | 260 °C (dec.) | < 1 µM
